The values below are quoted from earlier work in patent US20230174671A1, “COMPOSITIONS AND METHODS FOR TREATING VIRAL INFECTIONS” (BIOVISTA, INC., priority 2020, published 2023).

Where a name gives a salt, the structure may show the parent alone.

One data set concerns SARS-CoV. Particulars: HeLa cells expressing TMPRSS2; Kawase et al, 2012.
For data set [1], the system named is human coronavirus NL63 (HCoV-NL63). Particulars: HeLa cells expressing TMPRSS2; Kawase et al, 2012.

Consider `CN(C)C(=O)COC(=O)Cc1ccc(OC(=O)c2ccc(NC(=N)N)cc2)cc1` [camostat mesylate], for which the “block of infection by SARS-CoV” value in the data set on SARS-CoV was “partially block infection”. Moreover, the “block of infection by human coronavirus NL63 (HCoV-NL63)” value in data set [1] was “partially block infection”.
